{"source": "patent US6800750B1", "about": "“Mc1-1 gene regulatory elements and a pro-apoptotic mc1-1 variant” (Dartmouth College, priority 1999, dated 2004)", "key": {"Mcl-1 [1]": {"system": "Mcl-1", "conditions": "cited from earlier work"}, "ML-1 cells": {"system": "ML-1 cells", "conditions": "cited from earlier work"}, "Mcl-1 [2]": {"system": "Mcl-1", "test": "Endogenous Mcl-1 expression in ML-1 cells exposed to inducers and inhibitors", "type": "cell-based, human"}, "[3]": {"system": "human Mcl-1 5′-flanking sequence", "test": "Transient luciferase expression assay of Mcl-1 reporter plasmids in K-562 cells", "type": "cell-based", "text": "A 1.7 kilobase (kb) XbaI/XmaI human Mcl-1 genomic fragment representing nucleotide residues −1656 to +160, where +1 denotes the major transcriptional start site, along with a 14 base pair (bp) adapter ligated to its 3′ end to place the luciferase gene in the correct reading frame, was inserted into NheI and HindIII digested pGL2-Basic luciferase reporter vector (Promega; Madison Wis.), yielding p(−1656)Mcl-1luc.\nA series of 5′-deleted plasmids were constructed by double digestion of p(−1656)Mcl-1luc with SmaI, which cuts just upstream of the Mcl-1 insert, and restriction enzymes known to cut at unique sites within the Mcl-1 insert. […] Additional plasmids were constructed using PCR, including p(−107)Mcl-1luc, p(−51)Mcl-1luc, and p(+11)Mcl-1luc; the PCR products were sequenced to confirm their identity.\nSpecific mutations were introduced into the p(−162)Mcl-1luc plasmid using a two stage PCR method of Chen and Boxer (supra, 1995). The Ets site at nucleotides −129 to −121 was converted from CCGGAAGC (SEQ ID NO: 4) to CCTTAAGC (SEQ ID NO: 5;ΔEts); the Sp1 site at nucleotides −118 to −113 was converted from CCGCCC (SEQ ID NO: 6) to CTGACC (SEQ ID NO: 7;ΔSp1); and the SRE at nucleotides −106 to −97 was converted from CCTTTTATGG (SEQ ID NO:8) to CCTTCGGCTG (SEQ ID NO: 9;ΔSRE); altered nucleotides are indicated in bold type. All mutations were verified by sequencing. The PCR products containing the desired mutations were digested with BstEII and EcoRI, and ligated into the p(−162)Mcl-1luc plasmid, which had been digested with the same enzymes.\nElectroporation was carried out with K-562 cells using the following protocol, which was based on preliminary experiments aimed at optimizing luciferase activity. Cells were washed twice and resuspended in PBS (5×10^6 cells in 0.5 ml) in the presence of 10 μg luciferase reporter plasmid, along with the pCMVhGH internal control plasmid used in most experiments (10 μg). After incubation on ice for 10 min, cells were electroporated (960 μF and 280 V; Bio-Rad Gene Pulser; Hercules Calif.), placed on ice for 15 min, then incubated at 37° C. (1×10^5 cells/ml) in Iscove's Modified Dulbecco's medium supplemented with 10% FBS, 100 units/ml penicillin, and 100 μg/ml streptomycin. After 17 hr, the cell suspension was divided into two portions, one of which was left untreated and the other of which was exposed to 1.7×10^−9 M TPA, which increased Mcl-1 expression in K-562 cells in a manner equivalent to that observed with 5×10^−10 TPA in ML-1 cells (Pahl et al., Expt. Hematol. 19:1038-1041 (1991), which is incorporated herein by reference). After 7 hr of exposure to TPA, when induction was at or near a peak level, cells were washed with PBS, then assayed in triplicate for luciferase activity (relative light units; Brasier et al., In “Current Protocols in Molecular Biology (Ausubel et al., eds.; John Wiley & Sons, N.Y. 1995), which is incorporated herein by reference; see pages 9.7.12-9.7.21) using a Microlite ML2250 Microtiter plate luminometer (Dynatech Laboratories; Chantilly Va.).\nIn most experiments, a human growth hormone reporter plasmid, pCMVhGH (10 μg), was used as a control for transfection efficiency. pCMVhGH yielded a linear increase in activity upon transfection with 2 to 10 μg plasmid, where activity with 2 μg of plasmid was near the limit of sensitivity of the hGH assay, but activity with 5 to 10 μg was sufficiently above background to be accurately quantified.\nThe experimental design, wherein an aliquot of cells electroporated with a test plasmid is divided into two portions, one of which was exposed to TPA and the other of which was not, was selected because CMV-based plasmids are subject to induction by TPA. […] Luciferase activity in both portions of cells was normalized to hGH production (assayed in triplicate in the portion of the sample not exposed to TPA)."}, "Erk-1 and Erk-2": {"system": "Erk-1 and Erk-2", "test": "Phosphorylation state of MAP kinase proteins in ML-1 cells", "type": "cell-based, human"}, "Hela cells": {"system": "Hela cells", "test": "Transient transfection cell death assay in Hela cells (β-gal marker, morphology scoring)", "type": "cell-based, human", "method": "Two types of expression constructs were prepared for use in transfection into mammalian cells. In one set of constructs, Mcl-1 or the Mcl-1s/ΔTM variant were expressed in the pCR3.1 vector; in the second set of constructs, Mcl-1 was fused to green fluorescent protein (GFP). The Mcl-1 RT-PCR reaction products from the F4/R4 primer pair reactions (SEQ ID NOS: 15 and 17, respectively; cloned in pCR3.1) were digested with KpnI (a KpnI site is present in the F4 primer; SEQ ID NO: 15) and HindIII, as was full length Mcl-1(Mcl-1 clone p3.2 in pBluescriptII SK); Kozopas et al., supra, 1993) and the resulting 5′ region of the cDNA was isolated and ligated into pCR3.1 to yield full length Mcl-1 and Mcl-1s/ΔM. […]\nThe pCR3.1-based Mcl-1 clones were transiently transfected into subconfluent monolayers of Hela cells in 12 well plates using SUPERFECT (Qiagen). […] Forty hr after transfection, cells were fixed, stained for β-gal activity, and analyzed microscopically to assess cell morphology. Transfection experiments were performed in a double blind manner and cells were scored either as having a normal, viable morphology (flat, healthy cells) or an abnormal morphology characteristic of dying cells (dense, rounded, detaching cells). All blue staining cells in each dish were counted and the results were expressed as percentages of cells with viable versus dying phenotypes."}}, "note": "Like-named read-outs stand apart in the source and are kept apart here.", "data": [{"molecule": "COc1cccc(-c2cc(=O)c3ccccc3o2)c1N", "note": "[PD 98059]", "values": [{"measurement": "basal Mcl-1 expression relative to value in the absence of PD 98059", "setting": "Mcl-1 [1]; endogenously expressing cells, 8.5 hr assay period", "result": "about 25%"}, {"measurement": "induction of endogenous Mcl-1 by TPA in the presence of PD 98059", "setting": "Mcl-1 [1]; endogenously expressing cells", "result": "about 3.5 fold"}, {"measurement": "cell death", "setting": "ML-1 cells; ERK inhibitor applied alone", "result": "not accompanied by cell death"}, {"measurement": "cell death", "setting": "ML-1 cells; ERK inhibitor applied in conjunction with TPA", "result": "cells died by apoptosis"}, {"measurement": "effect on up-regulation of Mcl-1 expression by TPA, colchicine and vinblastine", "setting": "Mcl-1 [2]; ML-1 cells", "result": "prevented"}, {"measurement": "decrease of TPA-induced luciferase activity", "setting": "[3]; K-562 cells, 1654 base pair reporter, PD 98059 prior to TPA exposure", "result": 78, "unit": "%"}, {"measurement": "effect on TPA-induced increase in luciferase activity", "setting": "[3]; K-562 cells, FIG. 2C", "result": "substantially, but not completely, inhibited"}, {"measurement": "effect on basal luciferase activity", "setting": "[3]; K-562 transfected cells, absence of TPA", "result": "caused a decline in basal activity"}]}, {"molecule": "CCCCCCCCCCCCCC(=O)O[C@@H]1[C@@H](C)[C@@]2(O)[C@@H](C=C(CO)C[C@]3(O)C(=O)C(C)=C[C@@H]23)[C@@H]2C(C)(C)[C@]12OC(C)=O", "note": "[TPA, 12-O-tetradecanoylphorbol acetate]", "values": [{"measurement": "phosphorylation of Erk-1 and Erk-2", "setting": "Erk-1 and Erk-2", "result": "increased phosphorylation"}, {"measurement": "time at which increase in Mcl-1 mRNA is detectable", "setting": "Mcl-1 [1]; ML-1 cells", "result": "≤ 1", "unit": "h"}, {"measurement": "Mcl-1 mRNA level relative to peak value", "setting": "Mcl-1 [1]; ML-1 cells, within 1 day", "result": "about 50%"}, {"measurement": "Mcl-1 level with TPA above low basal level", "setting": "Mcl-1 [1]; TPA without ERK inhibitor", "result": "~10", "unit": "fold"}, {"measurement": "Mcl-1 expression", "setting": "Mcl-1 [2]; ML-1 cells", "result": "induced"}, {"measurement": "increase in reporter gene activity in response to TPA", "setting": "[3]; 162 bp segment of human Mcl-1 5′-flanking sequence", "result": "approximately 10 fold"}, {"measurement": "induction of luciferase activity by TPA", "setting": "[3]; K-562 cells, Mcl-1-luciferase reporter constructs, test of cell lines", "result": "about 10 fold"}, {"measurement": "increase in luciferase activity after treatment with TPA", "setting": "[3]; K-562 cells, luciferase reporter driven by 1654 base pair segment of Mcl-1 5′ flanking region", "result": "approximately 8 fold"}, {"measurement": "increase in activity in the presence of TPA over reduced basal value", "setting": "[3]; K-562 cells, p(−107)Mcl-1luc and p(−51)Mcl-1luc", "result": "approximately 3.5 fold"}, {"measurement": "induction by TPA", "setting": "[3]; K-562 cells, p(−162)Mcl-1luc site mutation experiment (FIG. 3C)", "result": 9, "unit": "fold"}, {"measurement": "increase in luciferase activity in the presence of TPA", "setting": "[3]; K-562 cells, p(−1656)Mcl-1luc", "result": "about 10 fold"}, {"measurement": "fold-induction by TPA", "setting": "[3]; K-562 cells, wild-type plasmid, additional experiments", "result": "about 11 fold"}, {"measurement": "fold-induction by TPA above reduced basal value", "setting": "[3]; K-562 cells, ΔSRE/ΔEts plasmid", "result": "about 4 fold"}, {"measurement": "induction of luciferase activity by TPA", "setting": "[3]; p(−162)Mcl-1luc and p(−1663)Mcl-1luc, absence of pCMVhGH", "result": "about 13.5 fold"}, {"measurement": "induction of luciferase activity by TPA", "setting": "[3]; p(−162)Mcl-1luc and p(−1663)Mcl-1luc, presence of pCMVhGH", "result": "about 10.5 fold"}]}, {"molecule": "COc1cc2c(c(OC)c1OC)-c1ccc(OC)c(=O)cc1[C@@H](NC(C)=O)CC2", "note": "[colchicine]", "values": [{"measurement": "Mcl-1 expression", "setting": "Mcl-1 [2]; ML-1 cells", "result": "induced"}]}, {"molecule": "CC(=O)O[C@H]1C(=O)[C@@]2(C)[C@H]([C@H](OC(=O)c3ccccc3)[C@]3(O)C[C@H](OC(=O)[C@H](O)[C@@H](NC(=O)c4ccccc4)c4ccccc4)C(C)=C1C3(C)C)[C@]1(OC(C)=O)CO[C@@H]1C[C@@H]2O", "note": "[paclitaxel]", "values": [{"measurement": "effect of pretreatment on increase in Mcl-1 expression produced by TPA", "setting": "Mcl-1 [2]", "result": "not"}, {"measurement": "effect of pretreatment on increase in Mcl-1 expression produced by colchicine or vinblastine", "setting": "Mcl-1 [2]", "result": "blocked"}]}, {"molecule": "CC[C@]1(O)C[C@@H]2CN(CCc3c([nH]c4ccccc34)[C@@](C(=O)OC)(c3cc4c(cc3OC)N(C)[C@H]3[C@@](O)(C(=O)OC)[C@H](OC(C)=O)[C@]5(CC)C=CCN6CC[C@]43[C@@H]65)C2)C1", "note": "[vinblastine]", "values": [{"measurement": "Mcl-1 expression", "setting": "Mcl-1 [2]; ML-1 cells", "result": "induced"}]}, {"molecule": "Mcl-1s/ΔTM: 271 amino acid pro-apoptotic Mcl-1 splice variant, SEQ ID NO: 3, exon 1 joined to exon 3 (protein, listed as Homo sapiens) MFGLKRNAVIGLNLYCGGAGLGAGSGGATRPGGRLLATEKEASARREIGGGEAGAVIGGSAGASPPSTLTPDSRRVARPPPIGAEVPDVTATPARLLFFAPTRRAAPLEEMEAPAADAIMSPEEELDGYEPEPLGKRPAVLPLLELVGESGNNTSTDGSLPSTPPPAEEEEDELYRQSLEIISRYLREQATGAKDTKPMGRSGATSRKALETLRRVGDGVQRNHETVFQGWVCGVLPCRGPRRWHQECAAGFCRCCWSRSWFGISNKIALL", "values": [{"measurement": "killing of cells, quantitated by double blind scoring of blue staining cells", "setting": "Hela cells", "result": "as effective as Bax"}]}]}
